Read-outs that look alike come from different tables or passages of the source.
Legend:
[1] = Single and multiple-dose open safety and tolerability study, pharmacokinetics of pemirolast potassium tablets in humans; type: in vivo, human; details: for Cmax, mean / Cmax: multiple dose, healthy male subjects, N = 6; for Cmax: human, plasma
Description: This study comprised 18 healthy male subjects, 18-45 years of age, and was a single and multiple-dose, open study assessing the safety and tolerability of pemirolast potassium tablets (10 mg, Ulgixal™ tablets) with the doses 10, 30 and 50 mg (containing 8.5, 25.5 and 42.5 mg pemirolast free acid, respectively) b.i.d. (6 subjects in each dose group). The subjects received a single dose on the first day, then b.i.d. for three days and a single dose on the fifth day. The study was performed at the Berzelius Clinical Research Center AB in Linköping, Sweden. All laboratory pharmacokinetic analyses were performed by Quintiles AB, Uppsala, Sweden. Pharmacokinetic calculations were performed by Pharm Assist Sweden AB, Uppsala, Sweden. Mean Cmax data after multiple dosing are shown in and Table 1, and mean plasma concentrations over time on Day 5 are shown in FIG. 1.

[2] = tested on: airway or bronchial hyperresponsiveness; details: 50 mg doses twice daily in humans (Kemp et al 1992); cited from earlier work
asthma patients [3] = assay: Clinical trial: adverse events, vital signs and laboratory tests; type: in vivo, human; details: single oral doses of 40 mg and 400 mg
asthma patients [4] = assay: Clinical trial: FEV1 before and 3 hours after treatment; type: in vivo, human; details: 3 hours after an oral dose of 400 mg; 3.58±0.86 L before treatment; mean ±SD, n=22
[5] = tested on: 11β-PGF2α (mast cell biomarker prostaglandin D2 metabolite); assay: Clinical trial: urinary excretion of PGD2 metabolite 11β-PGF2α (EIA); type: in vivo, human; details: patients treated at least 3 days before with 40 mg or 400 mg, 4+4 patients, FIG. 3
Description: A secondary endpoint in the study was to analyse changes in urinary excretion of a metabolite (11β-prostaglandin (PG) F2α) of the lung mast cell mediator/biomarker prostaglandin D2. 11β-PGF2α analysis was performed in unextracted urine samples using a validated enzyme immunoassays (EIA) kit from Cayman Chemical, Ann Arbor, Mich., USA (Item no 516521). […]

[6] = tested on: airway hyperresponsiveness to mannitol challenge in asthma patients; assay: Clinical trial: mannitol challenge test (PD15 for mannitol) in asthma patients; type: in vivo, human; details: for Mannitol dose tolerated (PD15) at the placebo visit; reduction in AHR/BHR: n=4, FIG. 2
Description: This study comprised male and female asthma patients (18 to 46 years of age) with a positive asthma test (as determined by a mannitol challenge test (vide infra) performed within 15 days prior to enrolment at the first screening visit, Visit 1).
It was a double-blind, randomized, placebo-controlled, cross-over trial assessing the efficacy of orally administered single doses of placebo and 40 mg and 400 mg of pemirolast (immediate release tablets containing pemirolast sodium hemihydrate, as well as microcrystalline cellulose, mannitol, copovidone fine, croscarmellose sodium, anhydrous colloidal silica and magnesium stearate) in patients challenged with mannitol inhalation as described below.
The patients were exposed to the different treatments at three separate hospital visits at least 2 (mean 6.8, median 6) days apart. The data reported in FIGS. 2 and 3 below represent the patients that received placebo treatment at the first visit (n=8) or placebo at the second visit (after 40 mg at the first visit (n=4) or after 400 mg at the first visit (n=4)).
All doses were administered 3 hours before initiation of the mannitol challenge test to ensure peak plasma concentrations of pemirolast when the mannitol challenge was performed (blood samples for analysing plasma concentrations of pemirolast were collected 3 hours after drug administration).
There were 5 visits during the trial: A screening visit (Visit 1, within 15 days before Visit 2), three visits for treatment with Investigational Medicinal Products (IMP; pemirolast 40 or 400 mg, or placebo) (Visit 2-4, spaced at least 2 days apart), and a final follow-up visit by telephone (Visit 5, at least 2, but less than 4 days after Visit 4 and within 30 days of Visit 2). […]

[7] = Later pharmacokinetic studies in healthy volunteers, multiple doses b.i.d. for three and a half days; type: in vivo, human; details: for Cmax: human, plasma, oral, read-out: Actual Cmax
Excerpt: Later pharmacokinetic studies in healthy volunteers (7 to 8 in each group) have shown that actual Cmax values for various multiple doses (b.i.d. for three and a half days) are as follows: […]

[8] = Clinical trial: plasma pemirolast concentration by LC-MS/MS; type: in vivo; details: human, 40 and 400 mg single oral doses, asthma patients
Description: All doses were administered 3 hours before initiation of the mannitol challenge test to ensure peak plasma concentrations of pemirolast when the mannitol challenge was performed (blood samples for analysing plasma concentrations of pemirolast were collected 3 hours after drug administration). All laboratory pharmacokinetic analyses were performed by Clinical Pharmacology, Karolinska University Hospital, Stockholm, Sweden. Briefly, the concentration of pemirolast in human plasma was determined by solid phase extraction and liquid chromatography followed by tandem mass spectrometric detection (LC-MS/MS). The analytical method, utilizing a 200 μL sample aliquot, has a calibration range of 4.00-4000 ng/mL, with a lower limit of quantification (LLOQ) set at 4.00 ng/mL.

hERG potassium channel = hERG potassium channel (Homo sapiens, UniProt Q12809)
Description: This study was performed by PhysioStim, France, a GLP compliant facility.
The effects of pemirolast on hERG currents in HEK-293 cells stably expressing the hERG potassium channel were studied using patch-clamp technique.

[9] = Toxicokinetics of pemirolast in the dog, 7-day oral repeated dose; set-up: species or system dog (Beagles); details: Beagle, in vivo, 75 mg/kg daily oral, 7th day
Excerpt: There were no major differences in kinetics between males and females.

[10] = dog, in vivo
Description: The study, including all analyses and calculations, were performed by WIL Research, France, in compliance with Good Laboratory Practices (GLP).

[11] = 10 mg pemirolast potassium (8.5 mg free acid) oral b.i.d.
[12] = 30 mg pemirolast potassium (25.5 mg free acid) oral b.i.d.
[13] = 50 mg pemirolast potassium (42.5 mg free acid) oral b.i.d.

Sequence of hERG potassium channel (Q12809 whole entry): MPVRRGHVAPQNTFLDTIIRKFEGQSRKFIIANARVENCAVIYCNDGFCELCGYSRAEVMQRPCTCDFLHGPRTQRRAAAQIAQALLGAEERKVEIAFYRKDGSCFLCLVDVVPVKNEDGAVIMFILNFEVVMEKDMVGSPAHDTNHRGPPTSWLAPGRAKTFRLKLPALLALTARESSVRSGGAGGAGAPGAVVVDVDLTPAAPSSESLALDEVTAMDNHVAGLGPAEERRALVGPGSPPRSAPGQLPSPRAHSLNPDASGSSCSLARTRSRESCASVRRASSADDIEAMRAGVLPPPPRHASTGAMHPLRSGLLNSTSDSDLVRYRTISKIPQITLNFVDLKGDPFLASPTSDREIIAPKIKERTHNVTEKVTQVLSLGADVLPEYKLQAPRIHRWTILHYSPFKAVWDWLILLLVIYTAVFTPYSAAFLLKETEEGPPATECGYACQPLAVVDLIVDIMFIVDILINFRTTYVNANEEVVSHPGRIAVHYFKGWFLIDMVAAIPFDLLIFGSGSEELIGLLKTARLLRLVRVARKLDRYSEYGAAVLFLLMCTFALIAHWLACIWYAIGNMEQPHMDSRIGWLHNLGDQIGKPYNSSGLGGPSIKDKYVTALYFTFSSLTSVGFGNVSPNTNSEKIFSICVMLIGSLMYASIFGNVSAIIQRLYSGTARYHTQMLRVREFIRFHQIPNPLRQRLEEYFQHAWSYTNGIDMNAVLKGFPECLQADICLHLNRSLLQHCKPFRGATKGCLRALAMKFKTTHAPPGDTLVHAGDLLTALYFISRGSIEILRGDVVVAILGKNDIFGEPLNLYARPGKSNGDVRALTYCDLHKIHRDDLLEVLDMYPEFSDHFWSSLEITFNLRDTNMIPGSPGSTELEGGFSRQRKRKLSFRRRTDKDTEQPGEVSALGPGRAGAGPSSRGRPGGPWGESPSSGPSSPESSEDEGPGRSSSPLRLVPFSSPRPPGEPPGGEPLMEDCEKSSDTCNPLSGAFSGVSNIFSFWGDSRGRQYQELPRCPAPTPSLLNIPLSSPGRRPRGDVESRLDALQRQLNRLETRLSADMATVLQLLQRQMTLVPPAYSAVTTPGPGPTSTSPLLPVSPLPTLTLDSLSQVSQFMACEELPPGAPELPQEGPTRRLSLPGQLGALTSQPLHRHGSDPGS

Which results are given for `Cc1cccn2c(=O)c(-c3nnn[nH]3)cnc12` [pemirolast]?
Cmax, mean [1, 11]: 730 ng/mL; Cmax, mean [1, 12]: 2040 ng/mL; Cmax, mean [1, 13]: 3420 ng/mL; Predicted Cmax ([1]; predicted for 125 mg, linear extrapolation from 8.5 mg multiple dose): 10680 ng/mL; Predicted Cmax ([1]; predicted for 125 mg, linear extrapolation from 25.5 mg multiple dose): 9980 ng/mL; Predicted Cmax ([1]; predicted for 125 mg, linear extrapolation from 42.5 mg multiple dose): 10070 ng/mL; Predicted Cmax ([1]; predicted for 200 mg, linear extrapolation from 8.5 mg multiple dose): 17080 ng/mL; Predicted Cmax ([1]; predicted for 200 mg, linear extrapolation from 25.5 mg multiple dose): 15980 ng/mL; Predicted Cmax ([1]; predicted for 200 mg, linear extrapolation from 42.5 mg multiple dose): 16120 ng/mL; Predicted Cmax ([1]; predicted for 400 mg, linear extrapolation from 8.5 mg multiple dose): 34160 ng/mL; Predicted Cmax ([1]; predicted for 400 mg, linear extrapolation from 25.5 mg multiple dose): 31950 ng/mL; Predicted Cmax ([1]; predicted for 400 mg, linear extrapolation from 42.5 mg multiple dose): 32230 ng/mL; Effect on airway or bronchial hyperresponsiveness [2]: no effect whatsoever; Adverse events, vital signs, physical examination, laboratory tests (asthma patients [3]): no serious adverse events; FEV1 (asthma patients [4]): 3.55 ± 0.84 L; Urinary levels of the PGD2 biomarker (11β-PGF2α), 40 mg versus 400 mg [5]: did not differ; Mannitol PD15 ([6]; 3 hour pre-treatment, single oral dose, asthma patients): increased; Mannitol dose tolerated (PD15) at the placebo visit; reduction in AHR/BHR ([6]; single 40 mg oral dose before the placebo treatment): not seen; Mannitol dose tolerated (PD15) at the placebo visit; reduction in AHR/BHR ([6]; single 400 mg oral dose at least 3 days before placebo/mannitol): tolerated a much higher dose of mannitol; Safety and tolerability ([7]; 80, 200 and 320 mg b.i.d. for three and a half days): safe and well-tolerated; Cmax ([7]; 80 mg b.i.d. for three and a half days): 8840 ng/mL; Cmax ([7]; 200 mg b.i.d. for three and a half days): 32500 ng/mL; Cmax ([7]; 320 mg b.i.d. for three and a half days): 51000 ng/mL; half-life [8]: 4 to 7 h

For `Cc1cccn2c(=O)c(-c3nnn[nH]3)cnc12` [pemirolast potassium], which Cmax [1, 11] is on record?
Its Cmax is 730 ng/mL.

And the Cmax [1, 12]?
The Cmax was 2040 ng/mL.

What about the Cmax [1, 13] of the same compound?
The Cmax was 3420 ng/mL.

What about the “Decrease of hERG tail current amplitude” value (hERG potassium channel; 2.7 μg/mL) of the same compound?
Its value is 5.4%.

And the “Decrease of hERG tail current amplitude” value (hERG potassium channel; 8 μg/mL)?
The value was 10.2%.

And the “Decrease of hERG tail current amplitude” value (hERG potassium channel; 26.6 μg/mL)?
The value was 14.1%.

What about the “Decrease of hERG tail current amplitude” value (hERG potassium channel; 79.9 μg/mL) of the same compound?
Its value is 19.0%.

What about the Cmax ([9]; female dogs (n = 3)) of the same compound?
Its Cmax is 150000 ng/mL.

What about the Cmax ([9]; male dogs (n = 3)) of the same compound?
The Cmax was 168000 ng/mL.

And the Safe chronic dose [10]?
Its Safe chronic dose is 75 mg/kg daily.
